Test results as given in patent publication US7927579B2, “Tandem analyses of noncovalently driven effectors for modulatory mapping of activities of protein sites” (priority 2003, dated 2011).
Where no end group is shown, it is not given here.

Assays:
HIV protease I = target: T1, HIV protease I (Human immunodeficiency virus type 1 group M subtype B, UniProt P04585); conditions: covalent attachment to Cys95 at the dimer interfaces; Davis et al.; cited from earlier work
T1 construct: HIV-1 PR (15 μg/ml final concentration) was preincubated at 25 C

HIV PR [1] = target: T2, HIV PR (Human immunodeficiency virus type 1 group M subtype B, UniProt P04585); assay: Octapeptide library screen against HIV PR with and without CuCl2; format: biochemical; conditions: non-substrate based inhibiting peptide; residual HIV PR activity measured after cupric ion scavenger
T2 construct: preincubating the tetrapeptide(s) with HIV PR then adding the disulfide
Experimental: Combinatorial libraries of octapeptides were synthesized using T, L, N, F, S, G, F Q, V and I at positions 3-6 to generate 10,000 octapeptides. E and I occupied positions 1 and 2, respectively, and G, L occupied positions […], respectively. The C-terminus was in amide form, and the N terminus was in amino form. The peptide libraries were synthesized by standard procedures known in the art, Houghten, supra. The libraries were screened against HIV PR with and without CuCl2. CuCl2 was added to block 50-75% activity. Libraries were screened against CuCl2 by preincubating the tetrapeptide(s) with HIV PR, then adding CuCl2 at t0 and waiting until time tx has elapsed, the time required to inhibit 50-75% of enzyme activity in the absence of the library. At tx residual HIV PR activity was measured according to Danielson et al, supra, after adding cupric ion scavenger, namely, iminodiacetic.

HIV PR [2] = target: T2, HIV PR; assay: Tetrapeptide library screen against glutathione or II on HIV PR (assay in Salto et al.); format: biochemical; conditions: tetrapeptides preincubated with HIV PR, then disulfide added; (100 μM) printed; bind at the dimer interface
Experimental: Targeting Cys95. […] Davis et al. Biochemistry 20:2482-2488 (1996). For quantification of the irreversible inactivation of HIV proteases by these disulfides, HIV-1 PR (15 μg/ml final concentration) was preincubated at 25 C in 50 mM HEPES (pH 8.0), 1M NaCl, 1 mM EDTA, 5% Me2SO in the presence of a 10 μM to 1 mM concentration of each inhibitor. At various times, aliquots were removed and assayed for activity. The rates of inactivation were calculated after Salto et al. J. Biol. Chem. 269:10691-10698 (1994).
Combinatorial libraries containing tetrapeptides were synthesized with free C and N termini using T, L, N, F, R, S, V, G, F Q, and H as amino acid residues randomly located at the four positions of P4P3P2P1 according to procedures well known in the art (Houghten, R. A. Annu. Rev. Pharmacol. Toxicol. 2000, 40:273-282 and references therein). The amino acids were either spatially separated or synthesized in 100 pools of 100 tetrapeptides. Libraries were screened against glutathione or II by preincubating the tetrapeptide(s) with HIV PR then adding the disulfide and waiting until time t^ has elapsed (the time required to inhibit 50-75% of the biological target molecule's activity) in the absence of the library.

HIV I protease = HIV I protease (Human immunodeficiency virus type 1 group M subtype B, UniProt P04585); conditions: Danielson et al.; cited from earlier work

| Compound | inactivation of HIV protease I by covalent attachment to Cys95 (HIV protease I) | activity in library screen against disulfide inactivation of HIV PR (HIV PR [2]) | further results |
| --- | --- | --- | --- |
| O=C(O)c1cc(SSc2ccc([N+](=O)[O-])c(C(=O)O)c2)ccc1[N+](=O)[O-] [5,5′-dithiobis(2-nitrobenzoic acid)] | inactivate HIV protease I |  |  |
| N[C@@H](CCC(=O)N[C@@H](CS)C(=O)NCC(=O)O)C(=O)O [glutathione] | inactivate HIV protease I |  |  |
| LGQGVSIE-NH2 |  |  | inhibitory activity against HIV PR (HIV PR [1]): about 5 μM |
| TLNL [tetrapeptide with free C and N termini from combinatorial library] |  | most active |  |
| [Cl][Cu][Cl] [Cupric ions, CuCl2] |  |  | inactivation of HIV I protease by binding to Cys67 and His69 (HIV I protease): specifically inactivate HIV I protease |
| S-F-N-L (SFNL) [tetrapeptide with free C and N termini from combinatorial library] |  | most active |  |
